Test results published in patent US20220339249A1, “COMPOSITE BIOMARKER FOR CANCER THERAPY” (Bristol-Myers Squibb Company, priority 2019, published 2022).

Key:
TDO2 = TDO2 (Homo sapiens, UniProt P48775); conditions: cited from earlier work
tumors = experiment: Response to nivolumab monotherapy (CheckMate trials) by TDO2 expression; format: in vivo, human; conditions: immuno-oncology naïve patients
Experimental: TDO2 expression was determined by median. All tumors are […] from the biomarker cohort (Clinical Trial No. NCT02658890). Nivolumab monotherapy data is from CheckMate trials. NE=not evaluable; PD=progressive disease; PR=partial response; SCCHN=squamous cell carcinoma of the head and neck; SD=stable disease; TDO2=tryptophan 2,3-dioxygenase 2.
Therefore, the association between TDO2 expression and clinical response was evaluated. High or low TDO2 expression levels were determined by the median. Based on the objective response rate, 26% of patients with low TDO2 expression responded to treatment while only 13% of patients with high TDO2 expression responded to treatment (TABLE 4).

[1] = monotherapy, every two weeks; MTD not reached; cited from earlier work

Chain of TDO2 (P48775 whole entry): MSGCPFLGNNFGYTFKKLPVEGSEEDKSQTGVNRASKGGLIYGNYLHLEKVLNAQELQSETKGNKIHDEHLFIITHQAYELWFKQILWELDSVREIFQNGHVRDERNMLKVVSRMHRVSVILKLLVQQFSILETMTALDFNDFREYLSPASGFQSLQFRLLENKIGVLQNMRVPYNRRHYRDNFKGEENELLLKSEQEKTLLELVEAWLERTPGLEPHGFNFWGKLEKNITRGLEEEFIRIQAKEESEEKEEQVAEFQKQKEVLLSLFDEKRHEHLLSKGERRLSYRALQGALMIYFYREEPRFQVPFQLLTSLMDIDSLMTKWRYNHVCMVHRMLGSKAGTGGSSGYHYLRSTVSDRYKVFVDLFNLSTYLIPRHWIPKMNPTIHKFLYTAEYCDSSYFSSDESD

For `C[C@@H](C(=O)Nc1ccc(Cl)cc1)[C@H]1CC[C@@H](c2ccnc3ccc(F)cc32)CC1` [linrodostat, (2R)—N-(4-chlorophenyl)-2-(cis-4-(6-fluoroquinolin-4-yl)cyclohexyl)propanamide], the “inhibition of TDO2 enzymatic activity” value (TDO2) is given as “not TDO2 enzymatic activity”.

For nivolumab, the “association between TDO2 expression and response” value (tumors) is given as “No association” and the “maximum tolerated dose (MTD)” value [1] is given as greater than 10 mg/kg.
